# In ChEMBL document CHEMBL4673230, “Total Synthesis of Natural Lembehyne C and Investigation of Its Cytotoxic Properties” (J Nat Prod, 2020):
# The source made the active and inactive calls. No cut-off for these calls is given here.
# Key:
# Jurkat [1] = test: Induction of mitochondrial membrane potential loss in human Jurkat cells assessed as live cells at 200 nM after 4 hrs by MitoSense Red/7-AAD. flow cytometric analysis relative to control; type: functional
# [2] = Effect on total STAT3 level in human jurkat cells at 400 nM by magnetic bead based immunoassay; type: cell-based; details: 0.4 µM
# Jurkat [3] = test: Induction of mitochondrial membrane potential loss in human Jurkat cells assessed as live cells at 400 nM after 4 hrs by MitoSense Red/7-AAD. flow cytometric analysis relative to control; type: functional
# Jurkat [4] = test: Induction of cell cycle arrest in human Jurkat cells assessed as accumulation at G2 phase at 200 nM after 24 hrs by Guava Cell Cycle reagent based flow cytometric analysis relative to control; type: functional
# Jurkat [5] = test: Induction of ROS generation in human Jurkat cells assessed as mitochondria damaged cells at 200 nM after 24 hrs by MitoSox Red/annexin V-CF488A staining based flow cytometric analysis (reference value: 0%); type: functional
# [6] = Effect on total AKT level in human jurkat cells at 400 nM by magnetic bead based immunoassay; type: cell-based; details: 0.4 µM
# Jurkat [7] = test: Induction of cell cycle arrest in human Jurkat cells assessed as accumulation at G2 phase at 100 nM after 24 hrs by Guava Cell Cycle reagent based flow cytometric analysis relative to control; type: functional
# Jurkat [8] = test: Induction of cell cycle arrest in human Jurkat cells assessed as accumulation at sub-G1 phase at 50 nM after 24 hrs by Guava Cell Cycle reagent based flow cytometric analysis relative to control; type: functional
# Jurkat [9] = test: Induction of apoptosis in human Jurkat cells assessed as early apoptotic cells at 200 nM after 24 hrs by Annexin V/7-AAD staining.based flow cytometric analysis relative to control; type: functional
# [10] = Effect on total NFKappaB level in human jurkat cells at 400 nM by magnetic bead based immunoassay; type: cell-based; details: 0.4 µM
# HL-60 = test: Cytotoxicity against human HL-60 cells assessed as reduction in cell viability by 7-AAD staining based flow cytometric analysis; type: functional
# Jurkat [11] = test: Induction of ROS generation in human Jurkat cells assessed as apoptotic cells at 200 nM after 4 hrs by MitoSox Red/annexin V-CF488A staining based flow cytometric analysis (reference value: 3.18%); type: functional
# K562 = test: Cytotoxicity against human K562 cells assessed as reduction in cell viability by 7-AAD staining based flow cytometric analysis; type: functional
# Jurkat [12] = test: Induction of ROS generation in human Jurkat cells assessed as apoptotic cells with clear mitochondrial damages at 200 nM after 4 hrs by MitoSox Red/annexin V-CF488A staining based flow cytometric analysis (reference value: 0.39%); type: functional
# Jurkat [13] = test: Induction of DNA damage in human Jurkat cells assessed as increase in H2Ax phosphorylation at 0.4 uM after 2 hrs by Alexa Fluor555 staining based flow cytometric analysis; type: functional, cell-based
# Jurkat [14] = test: Induction of cell cycle arrest in human Jurkat cells assessed as accumulation at S phase at 50 nM after 24 hrs by Guava Cell Cycle reagent based flow cytometric analysis relative to control; type: functional
# Jurkat [15] = test: Induction of ROS generation in human Jurkat cells at 200 nM after 2 hrs by MitoSox Red/annexin V-CF488A staining based flow cytometric analysis relative to control; type: functional
# Jurkat [16] = test: Induction of cell cycle arrest in human Jurkat cells assessed as accumulation at sub-G1 phase at 400 nM after 24 hrs by Guava Cell Cycle reagent based flow cytometric analysis relative to control; type: functional
# Jurkat [17] = test: Induction of ROS generation in human Jurkat cells assessed as apoptotic cells at 200 nM after 24 hrs by MitoSox Red/annexin V-CF488A staining based flow cytometric analysis (reference value: 3.18%); type: functional
# Jurkat [18] = test: Induction of apoptosis in human Jurkat cells assessed as necrotic cells at 100 nM after 24 hrs by Annexin V/7-AAD staining.based flow cytometric analysis relative to control; type: functional
# Jurkat [19] = test: Induction of apoptosis in human Jurkat cells assessed as late apoptotic cells at 100 nM after 24 hrs by Annexin V/7-AAD staining.based flow cytometric analysis relative to control; type: functional
# Jurkat [20] = test: Induction of cell cycle arrest in human Jurkat cells assessed as accumulation at S phase at 400 nM after 24 hrs by Guava Cell Cycle reagent based flow cytometric analysis relative to control; type: functional
# Jurkat [21] = test: Induction of ROS generation in human Jurkat cells assessed as apoptotic cells with clear mitochondrial damages at 200 nM after 24 hrs by MitoSox Red/annexin V-CF488A staining based flow cytometric analysis (reference value: 0.39%); type: functional
# Jurkat [22] = test: Induction of cell cycle arrest in human Jurkat cells assessed as accumulation at G2/G1 phase at 200 nM after 24 hrs by Guava Cell Cycle reagent based flow cytometric analysis relative to control; type: functional
# Jurkat [23] = test: Induction of cell cycle arrest in human Jurkat cells assessed as accumulation at sub-G1 phase at 200 nM after 24 hrs by Guava Cell Cycle reagent based flow cytometric analysis relative to control; type: functional
# Jurkat [24] = test: Induction of apoptosis in human Jurkat cells assessed as late apoptotic cells at 200 nM after 24 hrs by Annexin V/7-AAD staining.based flow cytometric analysis relative to control; type: functional
# Jurkat [25] = test: Induction of ROS generation in human Jurkat cells assessed as living undamaged cells at 200 nM after 2 hrs by MitoSox Red/annexin V-CF488A staining based flow cytometric analysis (reference value: 95.44%); type: functional
# [26] = Effect on total JNK in human jurkat cells at 400 nM by magnetic bead based immunoassay; type: cell-based; details: 0.4 µM
# Jurkat [27] = test: Induction of apoptosis in human Jurkat cells assessed as early apoptotic cells at 50 nM after 24 hrs by Annexin V/7-AAD staining.based flow cytometric analysis relative to control; type: functional
# Jurkat [28] = test: Induction of cell cycle arrest in human Jurkat cells assessed as accumulation at G1 phase at 200 nM after 24 hrs by Guava Cell Cycle reagent based flow cytometric analysis relative to control; type: functional
# Jurkat [29] = test: Induction of cell cycle arrest in human Jurkat cells assessed as accumulation at super-G2 phase at 50 nM after 24 hrs by Guava Cell Cycle reagent based flow cytometric analysis relative to control; type: functional
# Jurkat [30] = test: Induction of mitochondrial membrane potential loss in human Jurkat cells assessed as late apoptotic cells at 400 nM after 4 hrs by MitoSense Red/7-AAD. flow cytometric analysis relative to control; type: functional
# Jurkat [31] = test: Induction of apoptosis in human Jurkat cells assessed as necrotic cells at 50 nM after 24 hrs by Annexin V/7-AAD staining.based flow cytometric analysis relative to control; type: functional
# Jurkat [32] = test: Induction of apoptosis in human Jurkat cells assessed as necrotic cells at 200 nM after 24 hrs by Annexin V/7-AAD staining.based flow cytometric analysis relative to control; type: functional
# Jurkat [33] = test: Induction of cell cycle arrest in human Jurkat cells assessed as accumulation at G2 phase at 400 nM after 24 hrs by Guava Cell Cycle reagent based flow cytometric analysis relative to control; type: functional
# Jurkat [34] = test: Induction of apoptosis in human Jurkat cells assessed as late apoptotic cells at 50 nM after 24 hrs by Annexin V/7-AAD staining.based flow cytometric analysis relative to control; type: functional
# Jurkat [35] = test: Induction of apoptosis in human Jurkat cells assessed as viable cells at 400 nM after 24 hrs by Annexin V/7-AAD staining.based flow cytometric analysis relative to control; type: functional; details: read-out: Activity
compound,measurement,setting,value
C#C[C@H](O)CCCCCCCCC/C=C\CC/C=C\CC/C=C\CCCCCCCCCCCCCCCC,Activity,Jurkat [1],95.64%
same,Activity,[2],Toxic
same,Activity,Jurkat [3],63.45%
same,Activity,Jurkat [4],8.65%
same,Activity,Jurkat [5],0%
same,Activity,[6],Toxic
same,Activity,Jurkat [7],7.28%
same,Activity,Jurkat [8],10.76%
same,Activity,Jurkat [9],13.2%
same,Activity,[10],Toxic
same,IC50,HL-60,93 nM
same,Activity,Jurkat [11],3.67%
same,IC50,K562,373 nM
same,Activity,Jurkat [12],25.4%
same,Activity,Jurkat [13],inactive
same,Activity,Jurkat [14],27.85%
same,Activity,Jurkat [15],25.4%
same,Activity,Jurkat [16],16.56%
same,Activity,Jurkat [17],45.78%
same,Activity,Jurkat [18],5.89%
same,Activity,Jurkat [19],39.78%
same,Activity,Jurkat [20],31.5%
same,Activity,Jurkat [21],20.58%
same,Activity,Jurkat [22],1.91%
same,Activity,Jurkat [23],18.01%
same,Activity,Jurkat [24],43.15%
same,Activity,Jurkat [25],70.77%
same,Activity,[26],Toxic
same,Activity,Jurkat [27],14.25%
same,Activity,Jurkat [28],33.86%
same,Activity,Jurkat [29],1.35%
same,Activity,Jurkat [30],2.87%
same,Activity,Jurkat [31],2.4%
same,Activity,Jurkat [32],7.51%
same,Activity,Jurkat [33],7.68%
same,Activity,Jurkat [34],23.53%
same,viability at 0.4 µM,Jurkat [35],32.9%
